Like-named read-outs stand apart in the source and are kept apart here.
Experiments:
[1] = stability test conditions not documented in the literature; cited from earlier work
[2] = Stability test of canagliflozin amorphous forms (moisture absorption, crystal transition); format: physicochemical; conditions: Temperature 25 ± 5° C., Humidity 50-60%, 3 months
From the text: In order to illustrate that the canagliflozin amorphous form of the present invention is different from the amorphous form prepared by the general amorphous preparation method, the inventors select and compare the amorphous forms obtained by the above-mentioned practical methods, including rapid evaporation of solvent for curing, mixed solvent method and other related methods.

| Structure (SMILES) | Crystal transition or not [1] | Obvious moisture absorption or not [1] | Crystal transition or not [2] | Obvious moisture absorption or not [2] |
| --- | --- | --- | --- | --- |
| Cc1ccc([C@@H]2O[C@H](CO)[C@@H](O)[C@H](O)[C@H]2O)cc1Cc1ccc(-c2ccc(F)cc2)s1 [CN103889429 Example 2] | No | No obvious |  |  |
| Cc1ccc([C@@H]2O[C@H](CO)[C@@H](O)[C@H](O)[C@H]2O)cc1Cc1ccc(-c2ccc(F)cc2)s1 [CN104119323 Example 1, reference compound] |  |  | No | No obvious |
